According to patent US6437184B1, “Oxime compounds, their use, and intermediates for their production” (Sumitomo Chemical Company, Limited, priority 1997, dated 2002):

Columns and labels:
Format in all cases: in vivo
[1] = system: Musca domestica; assay: Insecticidal test against Musca domestica; conditions: 24 h, 500 ppm water dilution, 0.7 ml on filter paper with sucrose, female adults, after 1 day, read-out: mortality
Method: In the bottom of a polyethylene cup having a diameter of 5.5 cm was placed a piece of filter paper having the same size. A 200-fold water dilution (500 ppm) of a test compound formulation obtained according to Formulation Example 1 was added dropwise at a volume of 0.7 ml on the filter paper, and about 30 mg of sucrose as a diet was uniformly placed thereon. Ten female adults of houseflies (Musca domestica) were set free in the cup, and the cup was kept covered. After 1 day, the survival of the adults was determined to determine the mortality.

[2] = system: Tetranychus urticae; assay: Acaricidal test against Tetranychus urticae; parameters: key: −: almost no damage and completely no surviving mites; ±: slight damage and some few surviving mites; +: rather smaller damage and a rather fewer surviving mites than non-treatment case; ++: same as non-treatment case; conditions: 500 ppm water dilution, 15 ml sprayed over brush bean with female adults set free 6 days before; after 8 days
Method: About twenty female adults of Tetranychus urticae were set free on brush bean (Phaseolus vulgaris) in the primary leaf stage, which had been potted in a plastic cup for 7 days after the seeding. After 6 days, a 200-fold water dilution (500 ppm) of a test compound formulation obtained according to Formulation Example 1 or 2 was sprayed at a volume of 15 ml over the plant. After 8 days, each compound was evaluated for acaricidal activity on the following criteria.
−: almost no damage and completely no surviving mites
±: slight damage and some few surviving mites
+: rather smaller damage and a rather fewer surviving mites than non-treatment case
++: same as non-treatment case

[3] = system: Spodoptera litura; assay: Insecticidal test against Spodoptera litura; conditions: 144 h, 500 ppm water dilution, 2 ml absorbed in 13 g artificial diet, fourth-instar larvae, after 6 days
Method: A 200-fold water dilution (500 ppm) of a test compound formulation obtained according to Formulation Example 1 or 2 was absorbed at a volume of 2 ml in an artificial diet (Insecta LF available from Nihon Nosan K.K.) having a weight of 13 g, which had been prepared in a polyethylene cup having a diameter of 11 cm. Five fourth-instar larvae of Spodoptera litura were set free in the cup. After 6 days, the survival of the larvae was examined to determine the mortality.

[4] = system: Plutella xylostella; assay: Insecticidal test against Plutella xylostella; conditions: 96 h, 50 ppm water dilution sprayed over potted cabbages, 25 ml per pot, third-instar larvae, after 4 days, read-out: mortality
Method: To a water dilution (50 ppm) of a test compound formulation obtained according to Formulation Example 1 was added a spreading agent (New RINOU available from Nihon Noyaku K.K.) at a dilution ratio of 3000-fold. The dilution was sprayed over potted cabbages at the four to five leaf stage at a volume of 25 ml per pot. After the treated plants were air dried, ten third-instar larvae of Plutella xylostella were set free on each pot. After 4 days, the mortality was determined.

[5] = system: Heliothis virescens; assay: Insecticidal test against Heliothis virescens; conditions: 168 h, 100 ppm water dilution, 0.2 ml on surface of artificial diet, second-instar larvae, after 7 days
Method: A water dilution (100 ppm) of a test compound formulation obtained according to Formulation Example 1 was added dropwise at a volume of 0.2 ml and uniformly spread over the surface of an artificial diet having a weight of 3 g, which had been prepared in a 30 ml plastic cup. After air drying, one second-instar larva of Heliothis virescens was set free in each cup. Ten larvae were used for each treatment. After 7 days, the mortality of the larvae was determined.

[6] = system: Helicoverpa armigera; assay: Insecticidal test against Helicoverpa armigera; conditions: 120 h, 100 ppm water dilution, cotton leaf fragment immersed 10 seconds, third-instar larvae, after 5 days
Method: A cotton leaf fragment (diameter, 5 cm) was immersed for 10 seconds Lin a water dilution (100 ppm) of a test compound formulation obtained according to Formulation Example 1. This fragment was taken out from the dilution, air dried, and placed in a polyethylene cup having a diameter of 5.5 cm. One third-instar larva of Helicoverpa armigera was set free in each cup. Ten larvae were used for each treatment. After 5 days, the mortality of the larvae was determined.

[7] = system: Cydia pomonella; assay: Insecticidal test against Cydia pomonella; conditions: 168 h, 100 ppm water dilution, 0.2 ml on surface of artificial diet, eggs just before hatching, after 7 days
Method in brief: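 A 100 ppm aqueous dilution of formulated compound (0.2 ml) was spread onto 3 g artificial diet and air-dried. About 20 near-hatching Cydia pomonella eggs on wax paper were added, four replicates per treatment. Larval mortality was recorded after 7 days.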

SMILES | mortality at 500 µg/mL [1] | acaricidal activity [2] | mortality at 500 µg/mL [3] | mortality at 50 µg/mL [4] | mortality at 100 µg/mL [5] | mortality at 100 µg/mL [6] | mortality at 100 µg/mL [7]
CC(COCCCCCOc1c(Cl)cc(OCC=C(Cl)Cl)cc1Cl)=NOCC(Cl)(Cl)Cl [(173), 5-(2,6-dichloro-4-(3,3-dichloro-2-propenyloxy)phenoxy)pentyloxyacetone O-(2,2,2-trichloroethyl)oxime] | ≥ 80% | “−” or “±” |  |  |  |  | 
CC(C)(C)ON=CCOc1c(Cl)cc(OCC=C(Cl)Cl)cc1Cl [(131), (2,6-dichloro-4-(3,3-dichloro-2-propenyloxy)phenoxy)acetaldehyde O-tert-butyloxime] |  |  | ≥ 80% |  |  |  | 
CC(C)(C)ON=CCCCCCOc1c(Cl)cc(OCC=C(Cl)Cl)cc1Cl [(134), 6-(2,6-dichloro-4-(3,3-dichloro-2-propenyloxy)phenoxy)hexanal O-tert-butyloxime] |  |  | ≥ 80% | ≥ 80% | ≥ 80% |  | 
CC(COCCCCCOc1c(Cl)cc(OCC=C(Cl)Cl)cc1Cl)=NOC(C)(C)C [(104), 5-(2,6-dichloro-4-(3,3-dichloro-2-propenyloxy)phenoxy)pentyloxyacetone O-tert-butyloxime] |  | “−” or “±” | ≥ 80% | ≥ 80% | ≥ 80% | ≥ 80% | 
CC(=NOCCCCCOc1c(Cl)cc(OCC=C(Cl)Cl)cc1Cl)C(C)C [(582), 3-methyl-2-butanone O-(5-(2,6-dichloro-4-(3,3-dichloro-2-propenyloxy)phenoxy)pentyl)oxime] |  | “−” or “±” |  |  |  | ≥ 80% | 
CC(C)(C)ON=CCOCCCCCCOc1c(Cl)cc(OCC=C(Cl)Cl)cc1Cl [(91), 6-(2,6-dichloro-4-(3,3-dichloro-2-propenyloxy)phenoxy)hexyloxyacetaldehyde O-tert-butyloxime] |  |  | ≥ 80% | ≥ 80% | ≥ 80% | ≥ 80% | ≥ 80%
CC(CC(C)C)=NOCCCCCCOc1c(Cl)cc(OCC=C(Cl)Cl)cc1Cl [(589), 4-methyl-2-pentanone O-(6-(2,6-dichloro-4-(3,3-dichloro-2-propenyloxy)phenoxy)hexyl)oxime] |  | “−” or “±” |  | ≥ 80% |  |  | 
CC(C)(C)ON=CCOCCCCOc1c(Cl)cc(OCC=C(Cl)Cl)cc1Cl [(6), 4-(2,6-dichloro-4-(3,3-dichloro-2-propenyloxy)phenoxy)butyloxyacetaldehyde O-tert-butyloxime] | ≥ 80% | “−” or “±” |  |  |  |  | ≥ 80%
ClC(Cl)=CCON=CCOCCCCCCOc1c(Cl)cc(OCC=C(Cl)Cl)cc1Cl [(34), 6-(2,6-dichloro-4-(3,3-dichloro-2-propenyloxy)phenoxy)hexyloxyacetaldehyde O-(3,3-dichloro-2-propenyl)oxime] |  |  | ≥ 80% | ≥ 80% | ≥ 80% |  | ≥ 80%
CC(C)(C)ON=CCOCCCOc1c(Cl)cc(OCC=C(Cl)Cl)cc1Cl [(90), 3-(2,6-dichloro-4-(3,3-dichloro-2-propenyloxy)phenoxy)propyloxyacetaldehyde O-tert-butyloxime] |  |  | ≥ 80% | ≥ 80% | ≥ 80% |  | ≥ 80%
CC(COCCCCCOc1c(Cl)cc(OCC=C(Cl)Cl)cc1Cl)=NOCC=C(Cl)Cl [(47), 5-(2,6-dichloro-4-(3,3-dichloro-2-propenyloxy)phenoxy)pentyloxyacetone O-(3,3-dichloro-2-propenyl)oxime] |  |  | ≥ 80% | ≥ 80% | ≥ 80% |  | ≥ 80%
CCCON=Cc1ccc(COc2c(Cl)cc(OCC=C(Cl)Cl)cc2Cl)cc1 [(327), 4-(2,6-dichloro-4-(3,3-dichloro-2-propenyloxy)phenoxymethyl)benzaldehyde O-propyloxime] |  | “−” or “±” |  | ≥ 80% |  | ≥ 80% | 
CCON=C(C)COc1ccc(OCC=CCl)cc1 [(A), 4-(3-chloro-2-propenyloxy)phenoxyacetone O-ethyloxime, reference compound] | 0% | + | 0% | 0% |  | 0% | 
ClC(Cl)=CCON=CCOCCCOc1c(Cl)cc(OCC=C(Cl)Cl)cc1Cl [(33), 3-(2,6-dichloro-4-(3,3-dichloro-2-propenyloxy)phenoxy)propyloxyacetaldehyde O-(3,3-dichloro-2-propenyl)oxime] |  |  | ≥ 80% | ≥ 80% | ≥ 80% |  | ≥ 80%
CC(COCCOCCOc1c(Cl)cc(OCC=C(Cl)Cl)cc1Cl)=NOC(C)(C)C [(203), 2-(2-(2,6-dichloro-4-(3,3-dichloro-2-propenyloxy)phenoxy)-ethoxy)ethoxyacetone O-tert-butyloxime] | ≥ 80% |  | ≥ 80% |  |  |  | 
CCON=C(CC)c1ccc(OCCCOc2c(Cl)cc(OCC=C(Cl)Cl)cc2Cl)cc1 [(318), 4′-(3-(2,6-dichloro-4-(3,3-dichloro-2-propenyloxy)phenoxy)propyloxy)propiophenone O-ethyloxime] | ≥ 80% | “−” or “±” |  |  |  | ≥ 80% | 
CC(COCCCCOc1c(Cl)cc(OCC=C(Cl)Cl)cc1Cl)=NOC(C)(C)C [(103), 4-(2,6-dichloro-4-(3,3-dichloro-2-propenyloxy)phenoxy)butyloxyacetone O-tert-butyloxime] |  |  | ≥ 80% | ≥ 80% |  |  | 
CON=Cc1ccc(OCCCCOc2c(Cl)cc(OCC=C(Cl)Cl)cc2Cl)cc1 [(306), 4-(4-(2,6-dichloro-4-(3,3-dichloro-2-propenyloxy)phenoxy)butyloxy)benzaldehyde O-methyloxime] |  | “−” or “±” |  |  |  |  | ≥ 80%
CC(C)(C)ON=CCCOc1c(Cl)cc(OCC=C(Cl)Cl)cc1Cl [(133), 3-(2,6-dichloro-4-(3,3-dichloro-2-propenyloxy)phenoxy)propionaldehyde O-tert-butyloxime] |  |  | ≥ 80% |  |  |  | 
CC(CC(C)(C)C)=NOCCCCCCOc1c(Cl)cc(OCC=C(Cl)Cl)cc1Cl [(593), 4,4-dimethyl-2-pentanone O-(6-(2,6-dichloro-4-(3,3-dichloro-2-propenyloxy)phenoxy)hexyl)oxime] |  | “−” or “±” |  |  |  |  | 
CCCC=NOCCCCCOc1c(Cl)cc(OCC=C(Cl)Cl)cc1Cl [(542), butanal O-(5-(2,6-dichloro-4-(3,3-dichloro-2-propenyloxy)phenoxy)pentyl)oxime] | ≥ 80% | “−” or “±” |  |  |  |  | 
CC(C)CCON=Cc1ccc(Oc2ccccc2)cc1 [(B), 4-phenoxy-benzaldehyde O-(3-methylbutyl)oxime, reference compound] | 0% | + | 0% |  |  |  | 
